The source made the active and inactive calls. Rule as the data show it, for most assays here: actives have a measured Kd and inactives only a lower limit.
Experiments:
[1] = biological target: T1, Ribosyldihydronicotinamide dehydrogenase [quinone] (Homo sapiens, UniProt P16083)
T1 sequence (P16083 whole entry): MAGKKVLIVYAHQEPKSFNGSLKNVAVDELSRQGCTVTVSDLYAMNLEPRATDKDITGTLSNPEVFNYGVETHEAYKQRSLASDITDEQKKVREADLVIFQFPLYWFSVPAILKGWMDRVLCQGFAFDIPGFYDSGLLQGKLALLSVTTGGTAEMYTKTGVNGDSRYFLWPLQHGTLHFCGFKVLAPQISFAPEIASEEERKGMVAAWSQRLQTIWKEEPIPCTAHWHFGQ

[2] = biological target: Chromodomain-helicase-DNA-binding protein 4 (Homo sapiens, UniProt Q14839)
[3] = biological target: Myosin light chain kinase, smooth muscle (Homo sapiens, UniProt Q15746)
[4] = biological target: Citron Rho-interacting kinase (Homo sapiens, UniProt O14578)
[5] = biological target: Mitogen-activated protein kinase kinase kinase 20 (Homo sapiens, UniProt Q9NYL2)
Ephrin type-A receptor 1 = biological target: T2, Ephrin type-A receptor 1 (Homo sapiens, UniProt P21709)
T2 sequence (P21709 whole entry): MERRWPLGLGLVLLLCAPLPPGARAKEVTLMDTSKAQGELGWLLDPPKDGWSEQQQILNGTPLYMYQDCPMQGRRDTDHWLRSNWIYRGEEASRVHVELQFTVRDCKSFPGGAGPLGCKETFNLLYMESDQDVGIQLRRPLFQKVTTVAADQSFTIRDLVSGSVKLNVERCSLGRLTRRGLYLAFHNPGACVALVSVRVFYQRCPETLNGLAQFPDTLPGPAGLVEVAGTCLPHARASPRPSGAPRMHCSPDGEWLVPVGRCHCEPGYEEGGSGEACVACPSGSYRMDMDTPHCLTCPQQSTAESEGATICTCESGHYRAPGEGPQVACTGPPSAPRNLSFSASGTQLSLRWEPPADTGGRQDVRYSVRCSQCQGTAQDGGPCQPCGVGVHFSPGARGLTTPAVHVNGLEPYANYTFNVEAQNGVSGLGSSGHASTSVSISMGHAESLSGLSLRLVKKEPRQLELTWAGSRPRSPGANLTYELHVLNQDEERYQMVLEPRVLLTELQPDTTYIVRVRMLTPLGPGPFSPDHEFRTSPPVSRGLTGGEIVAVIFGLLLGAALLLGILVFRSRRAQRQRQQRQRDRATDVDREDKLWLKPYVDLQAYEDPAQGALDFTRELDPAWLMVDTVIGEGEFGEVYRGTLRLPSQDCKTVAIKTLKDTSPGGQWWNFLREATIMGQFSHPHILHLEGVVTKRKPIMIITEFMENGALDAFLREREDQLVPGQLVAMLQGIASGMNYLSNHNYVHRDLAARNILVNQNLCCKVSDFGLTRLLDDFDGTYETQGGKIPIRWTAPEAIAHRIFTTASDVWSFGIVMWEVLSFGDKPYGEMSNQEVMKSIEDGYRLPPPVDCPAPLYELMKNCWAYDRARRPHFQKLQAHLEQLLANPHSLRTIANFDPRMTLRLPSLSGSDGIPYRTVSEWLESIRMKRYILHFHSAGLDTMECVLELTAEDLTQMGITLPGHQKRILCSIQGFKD

[6] = biological target: Tyrosine-protein kinase Lck (Homo sapiens, UniProt P06239)
Ephrin type-A receptor 2 = Ephrin type-A receptor 2 (Homo sapiens, UniProt P29317)
[7] = biological target: Epithelial discoidin domain-containing receptor 1 (Homo sapiens, UniProt Q08345)
[8] = biological target: RAC-gamma serine/threonine-protein kinase (Homo sapiens, UniProt Q9Y243)
[9] = biological target: T3, Serine/threonine-protein kinase Nek3 (Homo sapiens, UniProt P51956)
T3 sequence (P51956 whole entry): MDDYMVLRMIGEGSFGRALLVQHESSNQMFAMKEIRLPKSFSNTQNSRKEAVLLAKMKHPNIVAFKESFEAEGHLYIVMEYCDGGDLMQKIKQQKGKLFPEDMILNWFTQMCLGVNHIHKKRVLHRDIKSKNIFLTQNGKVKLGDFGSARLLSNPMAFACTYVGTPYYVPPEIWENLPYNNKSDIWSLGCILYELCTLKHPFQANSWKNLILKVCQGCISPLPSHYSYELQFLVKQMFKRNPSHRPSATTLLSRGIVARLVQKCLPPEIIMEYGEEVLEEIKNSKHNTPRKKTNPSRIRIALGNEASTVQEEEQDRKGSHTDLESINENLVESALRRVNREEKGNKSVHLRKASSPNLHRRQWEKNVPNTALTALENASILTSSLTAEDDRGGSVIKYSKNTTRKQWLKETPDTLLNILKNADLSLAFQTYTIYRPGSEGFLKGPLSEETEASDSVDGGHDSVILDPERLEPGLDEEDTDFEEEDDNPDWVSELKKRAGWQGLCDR

[10] = biological target: T4, Phosphatidylinositol 5-phosphate 4-kinase type-2 gamma (Homo sapiens, UniProt Q8TBX8)
T4 sequence (Q8TBX8 whole entry): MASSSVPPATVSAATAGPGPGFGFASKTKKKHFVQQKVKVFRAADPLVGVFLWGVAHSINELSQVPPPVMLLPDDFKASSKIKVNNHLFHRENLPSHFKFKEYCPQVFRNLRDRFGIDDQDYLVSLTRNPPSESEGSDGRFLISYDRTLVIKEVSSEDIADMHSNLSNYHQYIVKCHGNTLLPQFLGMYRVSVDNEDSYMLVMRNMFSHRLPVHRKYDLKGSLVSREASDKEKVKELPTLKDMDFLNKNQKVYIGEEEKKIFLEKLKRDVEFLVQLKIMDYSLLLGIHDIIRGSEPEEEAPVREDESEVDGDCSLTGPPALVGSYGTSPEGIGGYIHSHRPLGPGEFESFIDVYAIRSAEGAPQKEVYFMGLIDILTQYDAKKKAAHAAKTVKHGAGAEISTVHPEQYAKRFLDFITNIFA
Also: in the data inactive means no Kd found up to 30 µM.

Sequence of Citron Rho-interacting kinase (O14578 whole entry): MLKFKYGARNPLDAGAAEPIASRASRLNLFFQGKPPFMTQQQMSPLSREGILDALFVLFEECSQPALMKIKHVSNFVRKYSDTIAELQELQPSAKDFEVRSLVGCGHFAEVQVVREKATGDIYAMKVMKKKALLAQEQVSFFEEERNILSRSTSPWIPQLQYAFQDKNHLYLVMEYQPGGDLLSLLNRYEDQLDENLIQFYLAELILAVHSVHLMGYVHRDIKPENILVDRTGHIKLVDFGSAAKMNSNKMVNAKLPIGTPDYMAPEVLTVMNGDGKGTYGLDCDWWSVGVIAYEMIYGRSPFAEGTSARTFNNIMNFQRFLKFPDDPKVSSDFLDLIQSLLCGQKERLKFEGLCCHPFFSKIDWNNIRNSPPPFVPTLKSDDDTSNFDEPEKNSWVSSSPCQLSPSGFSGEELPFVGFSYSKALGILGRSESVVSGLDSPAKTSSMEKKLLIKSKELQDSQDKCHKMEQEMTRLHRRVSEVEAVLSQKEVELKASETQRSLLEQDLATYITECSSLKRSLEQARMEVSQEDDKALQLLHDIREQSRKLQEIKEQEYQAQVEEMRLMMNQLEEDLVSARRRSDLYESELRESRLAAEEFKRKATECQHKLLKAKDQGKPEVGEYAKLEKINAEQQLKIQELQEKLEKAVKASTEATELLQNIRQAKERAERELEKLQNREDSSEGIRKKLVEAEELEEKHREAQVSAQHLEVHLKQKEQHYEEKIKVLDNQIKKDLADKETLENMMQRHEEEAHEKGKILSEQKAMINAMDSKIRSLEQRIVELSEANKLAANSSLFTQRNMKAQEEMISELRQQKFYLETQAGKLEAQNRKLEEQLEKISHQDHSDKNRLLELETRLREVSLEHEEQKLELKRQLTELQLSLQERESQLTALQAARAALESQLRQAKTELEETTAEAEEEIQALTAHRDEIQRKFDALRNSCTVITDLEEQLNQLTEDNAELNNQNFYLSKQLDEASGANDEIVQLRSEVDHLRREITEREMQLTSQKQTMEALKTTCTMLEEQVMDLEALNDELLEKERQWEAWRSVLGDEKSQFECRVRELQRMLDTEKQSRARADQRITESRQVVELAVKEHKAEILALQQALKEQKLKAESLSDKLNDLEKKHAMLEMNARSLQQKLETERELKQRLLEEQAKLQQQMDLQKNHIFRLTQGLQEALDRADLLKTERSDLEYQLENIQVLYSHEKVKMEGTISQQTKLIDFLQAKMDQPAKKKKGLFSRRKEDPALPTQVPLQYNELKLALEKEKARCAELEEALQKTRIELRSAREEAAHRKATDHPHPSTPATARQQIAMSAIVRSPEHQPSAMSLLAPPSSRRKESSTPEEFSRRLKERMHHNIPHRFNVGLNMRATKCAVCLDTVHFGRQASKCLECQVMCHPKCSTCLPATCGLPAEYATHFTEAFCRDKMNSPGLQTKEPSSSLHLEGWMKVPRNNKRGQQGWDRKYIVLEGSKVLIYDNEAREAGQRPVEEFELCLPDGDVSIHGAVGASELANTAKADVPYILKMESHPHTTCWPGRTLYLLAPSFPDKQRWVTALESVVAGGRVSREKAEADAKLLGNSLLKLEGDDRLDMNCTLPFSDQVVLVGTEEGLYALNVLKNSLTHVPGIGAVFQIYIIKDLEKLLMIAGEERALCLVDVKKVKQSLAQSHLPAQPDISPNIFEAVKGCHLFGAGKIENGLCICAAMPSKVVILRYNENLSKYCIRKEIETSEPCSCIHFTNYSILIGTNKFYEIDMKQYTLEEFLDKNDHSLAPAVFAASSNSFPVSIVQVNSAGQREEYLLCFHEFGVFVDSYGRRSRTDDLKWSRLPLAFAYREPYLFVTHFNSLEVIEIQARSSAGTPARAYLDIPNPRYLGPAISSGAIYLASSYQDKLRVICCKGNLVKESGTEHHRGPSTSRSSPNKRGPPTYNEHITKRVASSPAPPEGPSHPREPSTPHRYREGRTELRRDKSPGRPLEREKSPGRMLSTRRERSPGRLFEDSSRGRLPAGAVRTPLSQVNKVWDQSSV
Sequence of RAC-gamma serine/threonine-protein kinase (Q9Y243 whole entry): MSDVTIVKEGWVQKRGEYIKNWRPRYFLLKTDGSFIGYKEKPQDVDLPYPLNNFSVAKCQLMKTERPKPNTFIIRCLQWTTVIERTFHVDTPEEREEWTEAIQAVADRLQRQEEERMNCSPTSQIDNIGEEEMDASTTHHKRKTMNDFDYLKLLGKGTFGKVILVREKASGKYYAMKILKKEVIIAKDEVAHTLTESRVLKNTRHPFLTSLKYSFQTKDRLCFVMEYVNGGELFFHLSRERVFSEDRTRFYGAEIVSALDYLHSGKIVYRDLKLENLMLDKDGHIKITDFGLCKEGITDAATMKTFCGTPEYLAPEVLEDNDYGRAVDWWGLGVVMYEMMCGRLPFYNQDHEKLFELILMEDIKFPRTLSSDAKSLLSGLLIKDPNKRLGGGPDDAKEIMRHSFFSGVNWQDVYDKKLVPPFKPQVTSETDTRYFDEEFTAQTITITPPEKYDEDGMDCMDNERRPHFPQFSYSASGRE
Sequence of Chromodomain-helicase-DNA-binding protein 4 (Q14839 whole entry): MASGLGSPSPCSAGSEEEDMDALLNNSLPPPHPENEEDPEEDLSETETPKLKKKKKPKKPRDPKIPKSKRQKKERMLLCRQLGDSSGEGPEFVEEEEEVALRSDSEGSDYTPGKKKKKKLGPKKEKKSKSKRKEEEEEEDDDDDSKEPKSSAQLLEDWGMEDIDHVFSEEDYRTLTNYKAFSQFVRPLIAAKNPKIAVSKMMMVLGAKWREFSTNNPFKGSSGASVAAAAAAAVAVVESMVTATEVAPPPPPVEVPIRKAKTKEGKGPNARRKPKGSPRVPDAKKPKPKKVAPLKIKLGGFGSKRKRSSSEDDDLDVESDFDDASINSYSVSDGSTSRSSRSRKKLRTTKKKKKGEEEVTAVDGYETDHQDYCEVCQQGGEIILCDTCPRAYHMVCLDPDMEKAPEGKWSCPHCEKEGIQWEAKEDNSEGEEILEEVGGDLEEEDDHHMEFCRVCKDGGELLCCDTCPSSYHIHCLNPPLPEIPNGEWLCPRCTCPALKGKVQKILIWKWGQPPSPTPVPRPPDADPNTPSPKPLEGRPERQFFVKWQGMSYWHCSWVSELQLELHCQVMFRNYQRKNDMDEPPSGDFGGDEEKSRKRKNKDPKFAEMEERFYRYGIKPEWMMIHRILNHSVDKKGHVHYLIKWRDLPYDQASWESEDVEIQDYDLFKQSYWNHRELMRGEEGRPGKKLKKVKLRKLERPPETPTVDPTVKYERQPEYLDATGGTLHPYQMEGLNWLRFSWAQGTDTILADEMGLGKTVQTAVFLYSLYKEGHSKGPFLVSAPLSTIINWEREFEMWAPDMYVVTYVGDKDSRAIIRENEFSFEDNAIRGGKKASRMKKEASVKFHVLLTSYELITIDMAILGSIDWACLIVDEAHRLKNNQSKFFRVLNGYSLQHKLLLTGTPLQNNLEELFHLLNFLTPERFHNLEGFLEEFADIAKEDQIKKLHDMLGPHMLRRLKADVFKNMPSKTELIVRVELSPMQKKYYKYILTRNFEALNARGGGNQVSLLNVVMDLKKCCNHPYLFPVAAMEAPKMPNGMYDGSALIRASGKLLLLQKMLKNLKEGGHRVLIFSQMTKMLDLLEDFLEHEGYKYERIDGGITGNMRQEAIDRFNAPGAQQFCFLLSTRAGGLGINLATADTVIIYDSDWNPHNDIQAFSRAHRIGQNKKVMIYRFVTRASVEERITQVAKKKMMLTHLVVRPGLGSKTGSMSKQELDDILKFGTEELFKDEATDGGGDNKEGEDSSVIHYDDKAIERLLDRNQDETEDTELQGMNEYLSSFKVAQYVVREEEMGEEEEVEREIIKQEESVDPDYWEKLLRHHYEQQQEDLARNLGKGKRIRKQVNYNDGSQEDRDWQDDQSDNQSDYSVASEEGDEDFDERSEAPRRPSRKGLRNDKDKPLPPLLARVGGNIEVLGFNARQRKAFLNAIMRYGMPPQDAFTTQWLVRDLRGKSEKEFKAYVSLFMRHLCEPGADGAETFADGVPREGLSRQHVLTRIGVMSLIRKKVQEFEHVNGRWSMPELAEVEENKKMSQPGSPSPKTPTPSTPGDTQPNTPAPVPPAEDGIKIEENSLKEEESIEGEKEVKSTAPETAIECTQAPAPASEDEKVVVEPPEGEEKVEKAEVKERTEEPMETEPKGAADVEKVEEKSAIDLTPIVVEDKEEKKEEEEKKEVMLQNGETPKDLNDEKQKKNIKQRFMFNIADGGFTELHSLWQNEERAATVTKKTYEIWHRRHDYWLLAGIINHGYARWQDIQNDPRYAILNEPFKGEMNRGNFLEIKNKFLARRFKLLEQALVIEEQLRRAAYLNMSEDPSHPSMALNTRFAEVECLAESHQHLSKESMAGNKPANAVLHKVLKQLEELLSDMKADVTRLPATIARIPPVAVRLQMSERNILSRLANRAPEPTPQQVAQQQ
Sequence of Tyrosine-protein kinase Lck (P06239 whole entry): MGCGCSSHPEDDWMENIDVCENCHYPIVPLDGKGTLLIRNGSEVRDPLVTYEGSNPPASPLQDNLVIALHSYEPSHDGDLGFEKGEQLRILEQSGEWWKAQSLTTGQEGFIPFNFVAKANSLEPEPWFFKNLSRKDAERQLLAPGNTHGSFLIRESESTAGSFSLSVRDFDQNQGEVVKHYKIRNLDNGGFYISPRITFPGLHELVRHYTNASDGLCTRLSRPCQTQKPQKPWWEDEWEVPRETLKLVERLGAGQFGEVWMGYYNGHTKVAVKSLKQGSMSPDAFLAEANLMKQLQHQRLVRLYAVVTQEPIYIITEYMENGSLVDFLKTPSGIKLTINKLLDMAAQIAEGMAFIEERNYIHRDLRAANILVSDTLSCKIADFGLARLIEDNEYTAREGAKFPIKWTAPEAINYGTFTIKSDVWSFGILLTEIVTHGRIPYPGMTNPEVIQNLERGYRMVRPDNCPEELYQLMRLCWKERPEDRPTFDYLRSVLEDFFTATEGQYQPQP

Row | Kd [1] | Kd [2] | Kd [3] | Kd [4] | Kd [5] | Kd (Ephrin type-A receptor 1) | Kd [6] | Kd (Ephrin type-A receptor 2) | Kd [7] | Kd [8] | Kd [9] | Kd [10] | SMILES
1 | 3.35 µM (active) | > 30 µM (inactive) | > 30 µM (inactive) | > 30 µM (inactive) | > 30 µM (inactive) |  | > 30 µM (inactive) | > 30 µM (inactive) | 0.11 µM (active) | > 30 µM (inactive) | > 30 µM (inactive) |  | Cc1csc(-c2nnc(Nc3ccc(Oc4ncccc4-c4ccnc(N)n4)cc3)c3ccccc23)c1 [AMG-900]
2 | > 30 µM (inactive) | > 30 µM (inactive) | > 30 µM (inactive) | > 30 µM (inactive) | > 30 µM (inactive) |  | > 30 µM (inactive) | > 30 µM (inactive) | > 30 µM (inactive) | > 30 µM (inactive) | > 30 µM (inactive) | > 30 µM (inactive) | Cc1cc(C(=O)NOCCO)c(Nc2ccc(I)cc2F)n(C)c1=O [AZD-8330]
3 | > 30 µM (inactive) | > 30 µM (inactive) | 2.68 µM (active) | > 30 µM (inactive) | 0.998 µM (active) | > 30 µM (inactive) |  |  | 0.124 µM (active) | > 30 µM (inactive) | > 30 µM (inactive) | > 30 µM (inactive) | COc1cc2ncnc(Oc3cccc(NC(=O)Nc4cc(C(C)(C)C(F)(F)F)on4)c3)c2cc1OC [CEP-32496]
4 | > 30 µM (inactive) |  | > 30 µM (inactive) | 2.89 µM (active) | > 30 µM (inactive) | > 30 µM (inactive) | > 30 µM (inactive) | > 30 µM (inactive) | 0.008 µM (active) | 3.29 µM (active) | > 30 µM (inactive) |  | CCn1cc(-c2ccnc3[nH]c(-c4cccc(CN(C)C)c4)cc23)c(-c2ccc(NC(=O)N(C)C)cc2)n1 [GSK-1070916]
5 | > 30 µM (inactive) | > 30 µM (inactive) | > 30 µM (inactive) | > 30 µM (inactive) | > 30 µM (inactive) | 0.005 µM (active) | 0.166 µM (active) | 0.032 µM (active) |  | > 30 µM (inactive) | > 30 µM (inactive) | > 30 µM (inactive) | CC(C)c1cc(CNc2nc(Nc3cc(C4CC4)[nH]n3)cc(N3CCN(C)CC3)n2)on1 [XL-228]

More lines, now with the values behind:

Row | SMILES | Kd [1] | Kd [2] | Kd [3] | Kd [4] | Kd [5] | Kd (Ephrin type-A receptor 1) | Kd [6] | Kd (Ephrin type-A receptor 2) | Kd [7] | Kd [8] | Kd [9] | Kd [10]
6 | Cc1nc(NC(=O)N2CCC[C@H]2C(N)=O)sc1-c1ccnc(C(C)(C)C(F)(F)F)c1 [ALPELISIB] | > 30 µM (inactive) | > 30 µM (inactive) | > 30 µM (inactive) | > 30 µM (inactive) | > 30 µM (inactive) | > 30 µM (inactive) | > 30 µM (inactive) | > 30 µM (inactive) | > 30 µM (inactive) | > 30 µM (inactive) | > 30 µM (inactive) | 
7 | O=C(Nc1c[nH]nc1-c1nc2cc(CN3CCOCC3)ccc2[nH]1)NC1CC1 [AT-9283] | > 30 µM (inactive) | > 30 µM (inactive) | > 30 µM (inactive) | > 30 µM (inactive) | > 30 µM (inactive) |  | 0.89 µM (active) |  |  | > 30 µM (inactive) |  | > 30 µM (inactive)
8 | NC(=O)Nc1cc(-c2cccc(F)c2)sc1C(=O)N[C@H]1CCCNC1 [AZD-7762] | > 30 µM (inactive) | > 30 µM (inactive) | > 30 µM (inactive) | > 30 µM (inactive) | > 30 µM (inactive) |  | 1.29 µM (active) | > 30 µM (inactive) | > 30 µM (inactive) | > 30 µM (inactive) | > 30 µM (inactive) | > 30 µM (inactive)
9 | COc1c(OCCCN2CCOCC2)ccc2c1N=C(NC(=O)c1cnc(N)nc1)N1CCN=C21 [COPANLISIB] | > 30 µM (inactive) | > 30 µM (inactive) | > 30 µM (inactive) | > 30 µM (inactive) | > 30 µM (inactive) |  | > 30 µM (inactive) | > 30 µM (inactive) | > 30 µM (inactive) | > 30 µM (inactive) | > 30 µM (inactive) | > 30 µM (inactive)
10 | Cc1cccc(-c2nn3c(c2-c2ccnc4ccc(C(N)=O)cc24)CCC3)n1 [GALUNISERTIB] | > 30 µM (inactive) | > 30 µM (inactive) | > 30 µM (inactive) | > 30 µM (inactive) | > 30 µM (inactive) |  | > 30 µM (inactive) | > 30 µM (inactive) | > 30 µM (inactive) | > 30 µM (inactive) | > 30 µM (inactive) | > 30 µM (inactive)
11 | CNC(=O)c1nn(C)c2c1C(C)(C)Cc1cnc(Nc3ccc(N4CCN(C)CC4)cc3)nc1-2 [MILCICLIB] | > 30 µM (inactive) |  | > 30 µM (inactive) | > 30 µM (inactive) | > 30 µM (inactive) | > 30 µM (inactive) |  | 0.661 µM (active) | 4.17 µM (active) | > 30 µM (inactive) |  | 1.43 µM (active)
12 | COc1ncc(-c2ccc3nccc(-c4ccnnc4)c3c2)cc1NS(=O)(=O)c1ccc(F)cc1F [OMIPALISIB] | > 30 µM (inactive) | > 30 µM (inactive) | > 30 µM (inactive) | > 30 µM (inactive) | > 30 µM (inactive) |  | > 30 µM (inactive) | > 30 µM (inactive) | > 30 µM (inactive) | > 30 µM (inactive) | > 30 µM (inactive) | 1.37 µM (active)
13 | CCOc1cc2ncc(C#N)c(Nc3ccc(F)c(Cl)c3)c2cc1NC(=O)/C=C/CN(C)C [PELITINIB] | > 30 µM (inactive) | > 30 µM (inactive) | > 30 µM (inactive) | > 30 µM (inactive) | 0.875 µM (active) | > 30 µM (inactive) |  | > 30 µM (inactive) | > 30 µM (inactive) | > 30 µM (inactive) | > 30 µM (inactive) | > 30 µM (inactive)
14 | O=C1NC(=O)[C@@H](c2cn3c4c(cccc24)CCC3)[C@@H]1c1c[nH]c2ccccc12 [TIVANTINIB] | > 30 µM (inactive) | > 30 µM (inactive) | > 30 µM (inactive) | > 30 µM (inactive) | > 30 µM (inactive) |  | > 30 µM (inactive) | > 30 µM (inactive) | > 30 µM (inactive) | > 30 µM (inactive) | > 30 µM (inactive) | > 30 µM (inactive)
